According to patent publication EP0035412A1, “Amidotetrazole compounds and processes for their preparation” (GLAXO GROUP LIMITED, priority 1980, dated 1981):

Assays:
Assay type in all cases: in vivo
[1] = test system: rats with adjuvant arthritis; assay: Freund adjuvant arthritis test (anti-inflammatory activity); conditions: arthritic score versus first score, suspended in gum acacia
Description: The anti-inflammatory activity was determined by the Freund adjuvant arthritis test (Pearson, C.M. Proc. Soc. Exp. Biol. Med 91, 95 1956) and analgesic activity was determined by applying an increasing pressure to the inflamed paw (Randall, L.O. Selitto, J.J., Arch. Int. Pharmacodyn, 111, 409 1957) and recording pain threshold.
The anti-inflammatory activity of the compounds was determined in rats with adjuvant arthritis (Pearson, C.M. Prod. Soc. Exp. Biol. Med., 91, 95, 1956) induced by intradermal,injection into the tail of 0.1 ml of a fine suspension of Mycobacterium butyricum in liquid paraffin (6 mg.ml^-1).
After 14 days, animals were chosen on the basis of their arthritic score and test compounds, suspended in gum acacia, were then orally administered once a day for 14 days. At the end of this period, animals were scored again and percentage inhibition versus first score was calculated. Comparisons with controls were performed by the Dunnett test. The following results were obtained for the compounds of the Examples: […]

rat = assay: Toxicity (oral LD50); conditions: result in words
Description: (§1) The compounds are in general non-toxic at therapeutically active doses. For example, the compound of Example 1 has an LD50 value in the rat in excess of 3000 mg.kg ^-1 orally.

Toxicity (oral LD50) = conditions: in vivo, po; rat, orally
Description: as §1

[2] = oral dose 50.0 mg.kg^-1 once a day for 14 days

COc1ccc2c(c1)c(CC(=O)Nc1nnnn1-c1ccccc1)c(C)n2C(=O)c1ccc(Cl)cc1 [Example 1, 1-Phenyl-5-[1-(4-chlorobenzoyl)-5-methoxy-2-methylindol-3-ylacetamido]tetrazole]
% Inhibition ([1]; oral dose 6.25 mg.kg^-1 once a day for 14 days): 59% | therapeutic index (rat): particularly advantageous | LD50 (Toxicity (oral LD50)): > 3000 mg/kg

COc1ccc2c(c1)c(CC(=O)Nc1nnnn1-c1ccc(Cl)c(Cl)c1)c(C)n2C(=O)c1ccc(Cl)cc1 [Example 2, 1-(3,4-Dichlorophenyl)-5-[1-(4-chlorobenzoyl)-5-methoxy-2-methylindol-3-ylacetamido]tetrazole]
% Inhibition [1, 2]: 40.3%

COc1ccc2c(c1)c(CC(=O)Nc1nnnn1-c1ccc([N+](=O)[O-])cc1)c(C)n2C(=O)c1ccc(Cl)cc1 [Example 3, 1-(4-Nitrophenyl)-5-[1-(4-chlorobenzoyl)-5-methoxy-2-methylindol-3-ylacetamido] tetrazole]
% Inhibition ([1]; oral dose 10.0 mg.kg^-1 once a day for 14 days): 47.7%

COc1ccc2c(c1)c(CC(=O)Nc1nnnn1-c1ccc(N)cc1)c(C)n2C(=O)c1ccc(Cl)cc1 [Example 4]
% Inhibition [1, 2]: 44.8%
